Measured values as given in patent US20170253607A1, “LONG-ACTING HIV PROTEASE INHIBITOR” (Shionogi & Co., Ltd., priority 2014, published 2017).

Assays:
[1] = Protein binding test (equilibrium dialysis, unbound ratio fu in serum); format: in vitro ADME; settings: rat serum, equilibrium dialysis 24 hours, 37° C., 2 μg/mL
Description: Assay condition: Evaluation method; Equilibrium dialysis method, Reaction time; 24 hours, Reaction temperature; 37° C., Assay concentration; 2 μg/mL A solution of the compound was added to each serum and mixed to prepare the serum samples with above concentration. The serum sample was put into one side of an equilibrium dialysis apparatus with dialysis membrane and phosphate buffered saline (PBS) was also put to another side of the apparatus. The apparatus was incubated at 37° C. for 24 hours. After incubation, the serum and PBS samples were collected and the compound concentrations in both samples were measured by LC/MS/MS. Fu was calculated by dividing the concentration in PBS by the concentration in the serum.

[2] = Evaluation of total body clearance (CLtot), intravenous administration; format: in vivo, Sprague-Dawley (SD); settings: rat (SD), intravenous administration 0.5-10 mg/kg; CLtot = dose/AUC
Method in brief: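 Compounds given as a single tail-vein injection at 0.5-10 mg/kg (n=2-3), dose varying by compound. Plasma sampled at scheduled times and measured by LC/MS/MS; CLtot derived as dose divided by AUC from pharmacokinetic analysis.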

[3] = biological target: HIV-1 PR (Human immunodeficiency virus type 1 group M subtype B, UniProt P04585); test: HIV-protease inhibitory activity assay (FRET peptide substrate); format: biochemical; settings: Test Example 1
Method in brief: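 Fluorescence recovery at ex 485/em 535 nm reports cleavage of a quenched FRET peptide (2 μmol/L final) by 0.83 ng enzyme over 60 minutes at room temperature. Buffer was NaAc pH 4.8 with NaCl, EDTA, DTT and Tween 20. IC50 values came from four-parameter logistic regression of % inhibition.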

Compound | rat_fu [1] [%] | rat_CLt [2] [mL/min/kg] | IC50 [3] [nM]
COc1ccc(S(=O)(=O)N(CC(C)C)CC(O)C(Cc2ccc(OCc3ccccc3-c3sc4c(c3C(=O)O)CC(C)(C)CC4)cc2)NC(=O)OC2COC3(C)OCC(OCc4ccccc4)C23)cc1 (stereo not drawn) [Compound I-55] | <0.1 | 0.752 | 7.34
COc1ccc(S(=O)(=O)N(CC(C)C)CC(O)C(Cc2ccc(OCc3ccccc3-c3sc(N(C4CCCCC4)C4CCCCC4)nc3C(=O)O)cc2)NC(=O)OC2COC3(C)OCCC23)cc1 (stereo not drawn) [Compound I-74] | <0.1 | 3.88 | 1.71
COc1ccc(S(=O)(=O)N(CC(C)C)CC(O)C(Cc2ccc(OCc3cc(C#N)ccc3-c3sc4c(c3C(=O)O)CC(C)(C)CC4)cc2)NC(=O)OC2COC3(C)OCCC23)cc1 (stereo not drawn) [Compound I-79] | <0.1 | 3.15 | 1.74
COc1ccc(S(=O)(=O)N(CC(C)C)CC(O)C(Cc2ccc(OCc3ncccc3-c3sc4c(c3C(=O)O)CC(C)(C)CC4)cc2)NC(=O)OC2COC3(C)OCCC23)cc1 (stereo not drawn) [Compound I-88] | <0.1 | 2.5 | 0.86
COc1ccc(S(=O)(=O)N(CC(C)C)CC(O)C(Cc2ccc(OCc3ncc(Cl)cc3-c3sc4c(c3C(=O)O)CC(C)(C)CC4)cc2)NC(=O)OC2COC3(C)OCCC23)cc1 (stereo not drawn) [Compound I-93] | <0.1 | 2.22 | 0.99
COc1ccc(S(=O)(=O)N(CC(C)C)CC(O)C(Cc2ccc(OCc3ccccc3-c3sc4c(c3C(=O)O)CC(C)(C)CC4)cc2)NC(=O)OC2COC3(CO)OCCC23)cc1 (stereo not drawn) [Compound I-99] | <0.1 | 0.576 | 0.81
COc1ccc(S(=O)(=O)N(CC(C)C)CC(O)C(Cc2ccc(OC3CCCN(c4ccccc4-c4sc5c(c4C(=O)O)CC(C)(C)CC5)C3)cc2)NC(=O)OC2COC3(C)OCCC23)cc1 (stereo not drawn) [Compound I-102] | <0.1 | 4.24 | 3.83
COc1ccc(S(=O)(=O)N(CC(C)C)CC(O)C(Cc2ccc(CCc3sc4c(c3C(=O)O)CC(C)(C)CC4(C)C)cc2)NC(=O)OC2COC3(C)OCCC23)cc1 (stereo not drawn) [Compound I-105] | <0.1 | 2.29 | 2.42
CC(C)CN(CC(O)C(Cc1ccc(CCc2sc3c(c2C(=O)O)CC(C)(C)CC3)cc1)NC(=O)OC1COC2(C)OCCC12)S(=O)(=O)c1ccc2c(c1)OCO2 (stereo not drawn) [Compound I-106] | <0.1 | 3.49 | 2.57
COc1ccc(S(=O)(=O)N(CC(C)C)CC(O)C(Cc2ccc(OCc3ccccc3-c3sc4c(c3C(=O)O)CC(C)(C)CC4(C)C)cc2)NC(=O)OC2COC3(C)OCCC23)cc1 (stereo not drawn) [Compound I-113] | <0.1 | 1.18 | 1.84
CC(C)CN(CC(O)C(Cc1ccc(OCc2ccccc2-c2sc3c(c2C(=O)O)CC(C)(C)CC3(C)C)cc1)NC(=O)OC1COC2(C)OCCC12)S(=O)(=O)c1ccc2ncsc2c1 (stereo not drawn) [Compound I-119] | <0.1 | 2.29 | 1.23
CC(C)CN(CC(O)C(Cc1ccc(OCc2ccccc2-c2sc3c(c2C(=O)O)CC(C)(C)CC3)cc1)NC(=O)OC1COC2(C)OCCC12)S(=O)(=O)c1ccc2nc(O)sc2c1 (stereo not drawn) [Compound I-131] | <0.1 | 2.27 | 2.12
CC(C)CN(CC(O)C(Cc1ccc(OCc2ccccc2-c2sc3c(c2C(=O)O)CC(C)(C)CC3)cc1)NC(=O)OC1COC2(C)OCCC12)S(=O)(=O)c1ccc2c(c1)OCO2 (stereo not drawn) [Compound I-132] | <0.1 | 0.376 | 2.66
COc1ccc(S(=O)(=O)N(CC(C)C)CC(O)C(Cc2ccc(Oc3ccc(C)c(-c4sc5c(c4C(=O)O)CC(C)(C)CC5)c3)cc2)NC(=O)OC2COC3(C)OCCC23)cc1 (stereo not drawn) [Compound I-134] | <0.1 | 3.92 | 2.04
Cc1cc(Oc2ccc(CC(NC(=O)OC3COC4(C)OCCC34)C(O)CN(CC(C)C)S(=O)(=O)c3ccc4ncsc4c3)cc2)ccc1-c1sc2c(c1C(=O)O)CC(C)(C)CC2 (stereo not drawn) [Compound I-138] | <0.1 | 1.6 | 2.66
COc1ccc(S(=O)(=O)N(CC2CCCC2)CC(O)C(Cc2ccc(OCc3ccccc3-n3nc4c(c3C(=O)O)CC(C)(C)CC4)cc2)NC(=O)OC2COC3(C)OCCC23)cc1 (stereo not drawn) [Compound I-139] | <0.1 | 0.286 | 0.78
COc1ccc(S(=O)(=O)N(CC2CCCC2)CC(O)C(Cc2ccc(OCc3ccccc3-n3nc4c(c3C(=O)O)CC(C(F)(F)F)CC4)cc2)NC(=O)OC2COC3(C)OCCC23)cc1 (stereo not drawn) [Compound I-140] | <0.1 | 0.111 | 1.42
COc1ccc(S(=O)(=O)N(CC2CCCC2)CC(O)C(Cc2ccc(OCc3ccccc3-n3nc4c(c3C(=O)O)CC(C(C)(C)C)CC4)cc2)NC(=O)OC2COC3(C)OCCC23)cc1 (stereo not drawn) [Compound I-145] | <0.1 | 1.29 | 0.81
COc1ccc(S(=O)(=O)N(CC2CCCC2)CC(O)C(Cc2ccc(OCc3ccccc3-n3nc4c(c3C(=O)O)CC3(CCCC3)CC4)cc2)NC(=O)OC2COC3(C)OCCC23)cc1 (stereo not drawn) [Compound I-146] | <0.1 | 0.584 | 0.92
CC1(C)CCc2sc(-c3ccccc3COc3ccc(CC(NC(=O)OC4COC5(C)OCCC45)C(O)CN(CC(F)F)S(=O)(=O)c4ccc5ncsc5c4)cc3)c(C(=O)O)c2C1 (stereo not drawn) [Compound I-147] | <0.1 | 1.68 | 1.01
COc1ccc(S(=O)(=O)N(CC2CCC(=O)N2)CC(O)C(Cc2ccc(OCc3ccccc3-c3sc4c(c3C(=O)O)CC(C)(C)CC4)cc2)NC(=O)OC2COC3(C)OCCC23)cc1 (stereo not drawn) [Compound I-148] | <0.1 | 2.5 | 1.16
CC1(C)CCc2sc(-c3ccc(OCCN(CC(O)C(Cc4ccccc4)NC(=O)OC4COC5(C)OCCC45)S(=O)(=O)c4ccc5ncsc5c4)cc3)c(C(=O)O)c2C1 (stereo not drawn) [Compound I-165] | <0.1 | 1.08 | 3.21
Cc1cc(OCCN(CC(O)C(Cc2ccccc2)NC(=O)OC2COC3(C)OCCC23)S(=O)(=O)c2ccc3ncsc3c2)ccc1-c1sc2c(c1C(=O)O)CC(C)(C)CC2 (stereo not drawn) [Compound I-166] | <0.1 | 0.194 | 8.83
CC(C)CN(CC(O)C(Cc1ccc(OCCNC(=O)c2cc(Cl)cc(Cl)c2O)cc1)NC(=O)OC1COC2(C)OCCC12)S(=O)(=O)c1ccc2c(c1)OCO2 (stereo not drawn) [Compound I-168] | <0.1 | 5.68 | 1.83
CC(C)CN(CC(O)C(Cc1ccc(OCc2ccccc2-c2ccc3c(c2)C(=O)C(c2ccc(F)cc2)C3=O)cc1)NC(=O)OC1COC2(C)OCCC12)S(=O)(=O)c1ccc2ncsc2c1 (stereo not drawn) [Compound I-175] | <0.1 | 4.44 | 2
COc1ccc(S(=O)(=O)N(CC(C)C)CC(O)C(Cc2ccc(OCc3ncc(F)cc3-c3sc4c(c3C(=O)O)CC(C)(C)CC4)cc2)NC(=O)OC2COC3(C)OCCC23)cc1 (stereo not drawn) [Compound I-182] | <0.1 | 3.84 | 1.44
COc1ccc(S(=O)(=O)N(CC(C)C)CC(O)C(Cc2ccc(OCc3nccnc3-c3ccc(-c4sc5c(c4C(=O)O)CC(C)(C)CC5)cc3)cc2)NC(=O)OC2COC3(C)OCCC23)cc1 (stereo not drawn) [Compound I-195] | <0.1 | 6.74 | 2.15
COc1ccc(S(=O)(=O)N(CC(C)C)CC(O)C(Cc2ccc(OCc3ccccc3-c3ncc4c(c3C(=O)O)CCC(C)(C)C4)cc2)NC(=O)OC2COC3(C)OCCC23)cc1 (stereo not drawn) [Compound I-197] | <0.1 | 3.81 | 1.94
